Source: PubChem BioAssay AID1963427 (Molecular Pharmacology Branch, DTP, NCI, 2024)
Several values for one entry are separate records, joined by “and”; a condition that tells them apart may be missing. Equal entries are not always repeated.

System: 317291-083-R-J1-PDC complex spheroid growth
Experiment: Anticancer human tumor 317291-083-R-J1-PDC patient-derived soft tissue sarcoma cell line growth inhibition [Asc]
Conditions: for IC50: curve of first compound; for viability, T/C: stronger effect = lower value; active = viability on the fitted dose curve at most 10% of control; inactive = the rest
Procedure, shortened: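 Tumor cells were grown as multicellular spheroids with stromal HUVEC and mesenchymal stem cells and treated singly or in combination. Concentrations fell in half-log steps from the clinical Cmax, or from 10 microM where none was known.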

[1] = second compound 0.0316 µM, first compound 0.00949 µM
[2] = second compound 0.0316 µM, first compound 0.03 µM
[3] = second compound 0.0316 µM, first compound 0.0949 µM
[4] = second compound 0.0316 µM, first compound 0.3 µM
[5] = second compound 0.1 µM, first compound 0.00949 µM
[6] = second compound 0.1 µM, first compound 0.03 µM
[7] = second compound 0.1 µM, first compound 0.0949 µM
[8] = second compound 0.1 µM, first compound 0.3 µM
[9] = second compound 0.316 µM, first compound 0.00949 µM
[10] = second compound 0.316 µM, first compound 0.03 µM
[11] = second compound 0.316 µM, first compound 0.0949 µM
[12] = second compound 0.316 µM, first compound 0.3 µM
[13] = second compound 1 µM, first compound 0.00949 µM
[14] = second compound 1 µM, first compound 0.03 µM
[15] = second compound 1 µM, first compound 0.0949 µM
[16] = second compound 1 µM, first compound 0.3 µM
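Also: compound exposure lasted seven days after spheroids formed for three days.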
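For viability, T/C in this document: 100% = DMSO vehicle control wells.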

O=C(c1cc(Cc2n[nH]c(=O)c3ccccc23)ccc1F)N1CCN(C(=O)C2CC2)CC1 + CNC(C)C(=O)NC1CN(S(=O)(=O)c2cccc(S(=O)(=O)N3CCC4CCC(C(=O)NC(c5ccccc5)c5ccccc5)N4C(=O)C(NC(=O)C(C)NC)C3)c2)CCC2CCC(C(=O)NC(c3ccccc3)c3ccccc3)N2C1=O
< 0.0316 µM: IC50 (second compound 0.00316 µM) | IC50 (second compound 0.01 µM) | IC50 (second compound 1 µM)
active: viability, T/C (second compound 0.00316 µM, first compound 0.0316 µM) 4.34% | viability, T/C (second compound 0.00316 µM, first compound 0.1 µM) 4.85% | viability, T/C (second compound 0.00316 µM, first compound 0.316 µM) 5.04% | viability, T/C (second compound 0.00316 µM, first compound 1 µM) 5.11% | viability, T/C (second compound 0.00316 µM, first compound 3.16 µM) 4.26% | viability, T/C (second compound 0.00316 µM, first compound 10 µM) 4.12%
3.59 µM: IC50 (second compound 0.0316 µM)
0.743 µM: IC50 (second compound 0.1 µM)
inactive: viability, T/C (second compound 0.01 µM, first compound 0.0316 µM) 37% | viability, T/C (second compound 0.01 µM, first compound 0.1 µM) 43.8% | viability, T/C (second compound 0.01 µM, first compound 0.316 µM) 55.6% | viability, T/C (second compound 0.01 µM, first compound 1 µM) 33.9% | viability, T/C (second compound 0.01 µM, first compound 3.16 µM) 16.4% | viability, T/C (second compound 0.01 µM, first compound 10 µM) 16.1% | viability, T/C (second compound 0.0316 µM, first compound 0.0316 µM) 65.5% | viability, T/C (second compound 0.0316 µM, first compound 0.1 µM) 67.9% | viability, T/C (second compound 0.0316 µM, first compound 0.316 µM) 62% | viability, T/C (second compound 0.0316 µM, first compound 1 µM) 58.1% | viability, T/C (second compound 0.0316 µM, first compound 3.16 µM) 55.2% | viability, T/C (second compound 0.0316 µM, first compound 10 µM) 23.9% | viability, T/C (second compound 0.1 µM, first compound 0.0316 µM) 78.5% | viability, T/C (second compound 0.1 µM, first compound 0.1 µM) 71.3% | viability, T/C (second compound 0.1 µM, first compound 0.316 µM) 57.7% | viability, T/C (second compound 0.1 µM, first compound 1 µM) 54.7% | viability, T/C (second compound 0.1 µM, first compound 3.16 µM) 23.4% | viability, T/C (second compound 0.1 µM, first compound 10 µM) 34.9% | viability, T/C (second compound 0.316 µM, first compound 0.0316 µM) 52% | viability, T/C (second compound 0.316 µM, first compound 0.1 µM) 44.4% | viability, T/C (second compound 0.316 µM, first compound 0.316 µM) 44.8% | viability, T/C (second compound 0.316 µM, first compound 1 µM) 50.8% | viability, T/C (second compound 0.316 µM, first compound 3.16 µM) 17.4% | viability, T/C (second compound 0.316 µM, first compound 10 µM) 21.4% | viability, T/C (second compound 1 µM, first compound 0.0316 µM) 34.3% | viability, T/C (second compound 1 µM, first compound 0.1 µM) 47.7% | viability, T/C (second compound 1 µM, first compound 0.316 µM) 34.8% | viability, T/C (second compound 1 µM, first compound 1 µM) 27.9% | viability, T/C (second compound 1 µM, first compound 3.16 µM) 13.2% | viability, T/C (second compound 1 µM, first compound 10 µM) 13.8%
0.0316 µM: IC50 (second compound 0.316 µM)

Cc1nc(N2CCC3(CC2)COC(C)C3N)c(CO)nc1Sc1ccnc(N)c1Cl (configuration not stated) + Cc1c(S(C)(=O)=O)c(-c2cc(F)cc(N3CCN(c4ccc(NS(=O)(=O)c5ccc(NC(CCN6CCC(C(=O)OCCCP(=O)(O)O)CC6)CSc6ccccc6)c(S(=O)(=O)C(F)(F)F)c5)cc4)CC3)c2)c(-c2ccc(Cl)cc2)n1C(C)C
0.992 µM: IC50 (second compound 10 µM)
2.54 µM: IC50 (second compound 0.1 µM)
0.469 µM: IC50 (second compound 3.16 µM)
0.6 µM: IC50 (second compound 1 µM)
0.946 µM: IC50 (second compound 0.316 µM)
inactive: viability, T/C [1] 96.4% | viability, T/C [2] 77.5% | viability, T/C [3] 98.4% | viability, T/C [4] 82.8% | viability, T/C (second compound 0.0316 µM, first compound 0.949 µM) 61.3% | viability, T/C (second compound 0.0316 µM, first compound 3 µM) 43.5% | viability, T/C [5] 98.1% | viability, T/C [6] 92.1% | viability, T/C [7] 81.9% | viability, T/C [8] 69.8% | viability, T/C (second compound 0.1 µM, first compound 0.949 µM) 51.3% | viability, T/C (second compound 0.1 µM, first compound 3 µM) 51% | viability, T/C [9] 88.3% | viability, T/C [10] 91.3% | viability, T/C [11] 74.4% | viability, T/C [12] 63.9% | viability, T/C (second compound 0.316 µM, first compound 0.949 µM) 52.2% | viability, T/C (second compound 0.316 µM, first compound 3 µM) 29.9% | viability, T/C [13] 93.7% | viability, T/C [14] 73.2% | viability, T/C [15] 68.8% | viability, T/C [16] 63.1% | viability, T/C (second compound 1 µM, first compound 0.949 µM) 39.2% | viability, T/C (second compound 1 µM, first compound 3 µM) 37.9% | viability, T/C (second compound 3.16 µM, first compound 0.00949 µM) 86.5% | viability, T/C (second compound 3.16 µM, first compound 0.03 µM) 69.8% | viability, T/C (second compound 3.16 µM, first compound 0.0949 µM) 66.2% | viability, T/C (second compound 3.16 µM, first compound 0.3 µM) 58.6% | viability, T/C (second compound 3.16 µM, first compound 0.949 µM) 42.2% | viability, T/C (second compound 3.16 µM, first compound 3 µM) 20.4% | viability, T/C (second compound 10 µM, first compound 0.00949 µM) 86.5% | viability, T/C (second compound 10 µM, first compound 0.03 µM) 87.3% | viability, T/C (second compound 10 µM, first compound 0.0949 µM) 81.7% | viability, T/C (second compound 10 µM, first compound 0.3 µM) 67.5% | viability, T/C (second compound 10 µM, first compound 0.949 µM) 52% | viability, T/C (second compound 10 µM, first compound 3 µM) 26.7%
1.96 µM: IC50 (second compound 0.0316 µM)

NC(=O)C(=Cn1cnc(-c2cc(C(F)(F)F)cc(C(F)(F)F)c2)n1)c1cncnc1
6.6% and 6.29% and 7.34%: viability, T/C (compound 0.0949 µM)
inactive: viability, T/C (compound 0.000949 µM) 92.5% and 89.6% and 23.9% | viability, T/C (compound 0.003 µM) 88.1% and 74.5% and 25.9% | viability, T/C (compound 0.00949 µM) 92.4% and 72% and 36.3% | viability, T/C (compound 0.03 µM) 45.8% and 39.8% and 16%
active: viability, T/C (compound 0.3 µM) 3.75% and 1.91% and 3.91%

NC(=O)C(=Cn1cnc(-c2cc(C(F)(F)F)cc(C(F)(F)F)c2)n1)c1cncnc1 + CNC(C)C(=O)NC1CN(S(=O)(=O)c2cccc(S(=O)(=O)N3CCC4CCC(C(=O)NC(c5ccccc5)c5ccccc5)N4C(=O)C(NC(=O)C(C)NC)C3)c2)CCC2CCC(C(=O)NC(c3ccccc3)c3ccccc3)N2C1=O
0.0124 µM: IC50 (second compound 0.316 µM)
0.0206 µM: IC50 (second compound 0.0316 µM)
0.00813 µM: IC50 (second compound 0.1 µM)
0.0175 µM: IC50 (second compound 0.01 µM)
inactive: viability, T/C (second compound 0.00316 µM, first compound 0.000949 µM) 75.5% | viability, T/C (second compound 0.00316 µM, first compound 0.003 µM) 72.6% | viability, T/C (second compound 0.00316 µM, first compound 0.00949 µM) 47.7% | viability, T/C (second compound 0.00316 µM, first compound 0.03 µM) 32.1% | viability, T/C (second compound 0.01 µM, first compound 0.000949 µM) 105% | viability, T/C (second compound 0.01 µM, first compound 0.003 µM) 96.1% | viability, T/C (second compound 0.01 µM, first compound 0.00949 µM) 74.5% | viability, T/C (second compound 0.01 µM, first compound 0.03 µM) 29.3% | viability, T/C (second compound 0.0316 µM, first compound 0.000949 µM) 101% | viability, T/C (second compound 0.0316 µM, first compound 0.003 µM) 92.5% | viability, T/C [1] 75.6% | viability, T/C [2] 39.5% | viability, T/C (second compound 0.1 µM, first compound 0.000949 µM) 74.4% | viability, T/C (second compound 0.1 µM, first compound 0.003 µM) 73% | viability, T/C [5] 45.3% | viability, T/C [6] 16.6% | viability, T/C (second compound 0.316 µM, first compound 0.000949 µM) 63.2% | viability, T/C (second compound 0.316 µM, first compound 0.003 µM) 68.2% | viability, T/C [9] 60.1% | viability, T/C [10] 16.1% | viability, T/C (second compound 1 µM, first compound 0.000949 µM) 67.3% | viability, T/C (second compound 1 µM, first compound 0.003 µM) 38.9% | viability, T/C [13] 34.8% | viability, T/C [14] 12.6%
0.0104 µM: IC50 (second compound 0.00316 µM)
active: viability, T/C (second compound 0.00316 µM, first compound 0.0949 µM) 5.77% | viability, T/C (second compound 0.00316 µM, first compound 0.3 µM) 2.39% | viability, T/C (second compound 0.01 µM, first compound 0.0949 µM) 4.51% | viability, T/C (second compound 0.01 µM, first compound 0.3 µM) 2.62% | viability, T/C [3] 4.33% | viability, T/C [4] 1.8% | viability, T/C [7] 3.12% | viability, T/C [8] 1.09% | viability, T/C [11] 1.31% | viability, T/C [12] 2.22% | viability, T/C [15] 2.47% | viability, T/C [16] 1.44%
0.00222 µM: IC50 (second compound 1 µM)
